In US11447486B2, “2-amino-benzimidazole derivatives and their use as 5-lipoxygenase and/or prostaglandin E synthase inhibitors” (INSTITUT PASTEUR KOREA, priority 2014, dated 2022):

Columns and labels:
[1] = test system: Rat basophilic leukemia (RBL) cells; assay: LTB4 secretion assay in RBL (rat basophilic leukemia cells); assay type: cell-based; settings: Rattus norvegicus, RBL
How it was run: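 Cells seeded 2×10^4/well the day before, then pre-incubated 15 min at 37 °C in EMEM/0.5% FBS with compound (5 nM to 100 uM). Stimulation with 2.5 uM arachidonic acid plus 5 uM A23187 (final) for 10 min at 37 °C; LTB4 in supernatant quantified by EIA.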

[2] = target: T1, human 5-LOX (Homo sapiens, UniProt P09917); assay: 5-LOX enzyme activity, fluorescence method (5-HPETE, H2DCFDA); assay type: biochemical; settings: read-out: 5-LO (IC50)
T1 construct: purchased Cayman 60402; host or cells: insect cells (lysate)
T1 sequence (P09917 1-674): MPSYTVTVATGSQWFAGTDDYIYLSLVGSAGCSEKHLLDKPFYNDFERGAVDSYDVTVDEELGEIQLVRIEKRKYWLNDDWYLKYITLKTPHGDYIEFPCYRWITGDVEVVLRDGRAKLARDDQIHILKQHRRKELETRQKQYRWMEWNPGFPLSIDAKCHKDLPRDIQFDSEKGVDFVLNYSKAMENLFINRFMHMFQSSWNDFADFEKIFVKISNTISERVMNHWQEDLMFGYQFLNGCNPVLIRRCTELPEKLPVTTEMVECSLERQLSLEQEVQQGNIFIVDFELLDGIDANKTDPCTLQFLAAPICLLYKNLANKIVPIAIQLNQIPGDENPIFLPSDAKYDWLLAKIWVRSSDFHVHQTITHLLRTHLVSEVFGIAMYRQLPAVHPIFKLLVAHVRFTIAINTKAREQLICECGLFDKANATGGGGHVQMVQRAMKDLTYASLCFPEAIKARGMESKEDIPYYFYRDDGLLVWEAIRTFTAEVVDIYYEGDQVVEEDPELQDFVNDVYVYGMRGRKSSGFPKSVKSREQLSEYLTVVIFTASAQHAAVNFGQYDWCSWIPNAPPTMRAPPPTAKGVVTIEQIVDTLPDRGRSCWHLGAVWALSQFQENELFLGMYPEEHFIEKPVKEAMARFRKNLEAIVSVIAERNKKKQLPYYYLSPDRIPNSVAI
How it was run: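 Compound (0.5 nM to 10 uM) pre-incubated 5 min with enzyme; reaction started with ATP (100 uM final) and arachidonic acid (3 uM final). All steps at room temperature, fluorescence read-out.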

[3] = test system: Rat whole blood (RWB); assay: LTB4 secretion assay in RWB (rat whole blood); assay type: cell-based; settings: Rattus norvegicus
How it was run: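 Heparinized blood from male Sprague Dawley rats (6-9 weeks) diluted 1:1 in RPMI, pre-incubated 15 min at 37 °C with compound (2.5 nM to 50 uM). Stimulated with 10 uM calcium ionophore A23187 for 10 min at 37 °C, stopped with ice-cold PBS; LTB4 in supernatant quantified by EIA.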

EC50 [1]	IC50 [2]	EC50 [3]	Structure (SMILES)
> 20 µM	< 1 µM	< 10 µM	Cn1c(NCc2ccc(Oc3ncc(Cl)cn3)cc2F)nc2ccc(NC3COC3)cc21 [Compound 381]
< 10 µM	< 1 µM	< 10 µM	CNc1nc2ccc(N)cc2n1Cc1ccc(Oc2ccc(Cl)cn2)cc1 [Compound 229]
< 10 µM	> 10 µM	10 to 20 µM	CCn1c(NCc2ccc(Oc3cnc(C(F)(F)F)cn3)cc2)nc2ccc(Nc3cc(C(F)(F)F)n(C)n3)cc21 [Compound 523]
< 10 µM	< 1 µM	< 10 µM	Nc1ccc2nc(NCc3ccc(OCCC(F)(F)F)cc3)[nH]c2c1 [Compound 176]
< 10 µM	< 1 µM	> 20 µM	Nc1ccc2nc(NCc3coc(-c4ccc(Cl)cc4)n3)[nH]c2c1 [Compound 175]
< 10 µM	< 1 µM	10 to 20 µM	CCn1c(NCc2ccc(Oc3ncc(C(F)(F)F)cn3)cc2)nc2ccc(Nc3cc(C(C)(C)C)[nH]n3)cc21 [Compound 507]
< 10 µM	< 1 µM	< 10 µM	Nc1ccc2nc(NCCOc3ccc(OC(F)(F)F)cc3)[nH]c2c1 [Compound 62]
< 10 µM	< 1 µM	10 to 20 µM	Cn1c(NCc2ccc(Oc3nc4ccccc4n3C)cc2)nc2ccc(NC3COC3)cc21 [Compound 357]
< 10 µM	> 10 µM	< 10 µM	CCC(Nc1nc2ccc(Nc3cc(C(F)(F)F)n(C)n3)cc2n1C)c1ccc(Oc2ncc(C(F)(F)F)cn2)cc1F (stereo not drawn) [Compound 528]
< 10 µM	< 1 µM	10 to 20 µM	CC(Nc1nc2cc(N)ccc2[nH]1)c1ccc(Cl)cc1Cl (stereo not drawn) [Compound 74]
< 10 µM	< 1 µM	> 20 µM	Cn1c(NCCOc2ccc(OC(F)(F)F)c(Cl)c2)nc2cc(N)ccc21 [Compound 59]
< 10 µM	< 1 µM	< 10 µM	CN(C)c1nc2ccc(NCc3ccc(OCc4ncco4)cc3)cc2[nH]1 [Compound 233]
< 10 µM	1 to 10 µM	< 10 µM	CCC(Nc1nc2ccc(Nc3cc(C(F)(F)F)n(C)n3)cc2n1C)c1ccc(Oc2cnc(Cl)cn2)cc1 (stereo not drawn) [Compound 517]
< 10 µM	1 to 10 µM	< 10 µM	Cn1nc(C(F)(F)F)cc1Nc1ccc2nc(NCc3ccc(Oc4ncc(Cl)cn4)cc3)n(C)c2c1 [Compound 526]
< 10 µM	< 1 µM	< 10 µM	c1ccc(Oc2ccc(CNc3nc4cc(NC5CCCC5)ccc4[nH]3)cc2)cc1 [Compound 97]
< 10 µM	> 10 µM	< 10 µM	CCn1c(NCc2ccc(Oc3ncc(C(F)(F)F)cn3)cc2F)nc2ccc(Nc3cc(C(F)(F)F)n(C)n3)cc21 [Compound 527]
< 10 µM	< 1 µM	> 20 µM	Cn1c(NCCOc2ccc(OC(F)(F)F)cc2Cl)nc2cc(N)ccc21 [Compound 57]
< 10 µM	1 to 10 µM	< 10 µM	Cc1cccnc1Nc1ccc2nc(NCc3ccc(Oc4ncc(Cl)cn4)cc3)n(C)c2c1 [Compound 464]
< 10 µM	< 1 µM	< 10 µM	Cn1c(NCc2ccc(Oc3ccc(C(F)(F)F)cn3)cc2F)nc2ccc(NC3COC3)cc21 [Compound 546]
< 10 µM	< 1 µM	< 10 µM	Nc1ccc2[nH]c(NCc3ccc(Cl)cc3F)nc2c1 [Compound 30]
10 to 20 µM	< 1 µM	< 10 µM	Cn1c(NCc2ccc(Oc3cnc(N)nc3)cc2)nc2ccc(N)cc21 [Compound 360]

EC50 [1]	IC50 [2]	EC50 [3]	Structure (SMILES)
< 10 µM	< 1 µM	< 10 µM	CC(C)(C)Nc1nc2ccc(N)cc2n1CCOc1ccc(OC(F)(F)F)cc1 [Compound 65]
< 10 µM	< 1 µM	> 20 µM	CN(C)c1nc2cc(N3CCC(Oc4ccncc4)C3)ccc2[nH]1 (stereo not drawn) [Compound 202]
> 20 µM	< 1 µM	> 20 µM	Cn1c(NCc2ccc(C(=O)Nc3ccc(Cl)cn3)cc2)nc2ccc(NC3COC3)cc21 [Compound 303]
> 20 µM	< 1 µM	> 20 µM	Cn1c(NCc2ccc(Oc3nc4ccc(N)cc4n3C)cc2)nc2ccc(NC3COC3)cc21 [Compound 409]
< 10 µM	< 1 µM	< 10 µM	CN(C)c1ccc2nc(NCc3ccc(Oc4ccc(Cl)cn4)cc3)n(C)c2c1 [Compound 253]
> 20 µM	< 1 µM	< 10 µM	Cc1ccc(Oc2ccc(CNc3nc4ccc(N)cc4n3C)cc2)nn1 [Compound 311]
< 10 µM	< 1 µM	< 10 µM	Clc1ccc(Oc2ccc(CNc3nc4cc(NCc5ccccn5)ccc4[nH]3)cc2)cc1 [Compound 149]
< 10 µM	< 1 µM	< 10 µM	Clc1ccc(Oc2ccc(CNc3nc4cc(NC5COC5)ccc4[nH]3)cc2)cc1 [Compound 125]
< 10 µM	< 1 µM	10 to 20 µM	Nc1ccc2nc(N3CCCC3)n(CCOc3ccc(OC(F)(F)F)cc3)c2c1 [Compound 51]
< 10 µM	< 1 µM	< 10 µM	Nc1ccc2[nH]c(NCc3ccc(Oc4ccc(F)cc4)cc3)nc2c1 [Compound 94]
< 10 µM	< 1 µM	< 10 µM	Cn1c(NCc2ccc(Oc3ncc(C#N)cn3)cc2)nc2ccc(N)cc21 [Compound 367]
< 10 µM	< 1 µM	< 10 µM	Cc1cc(Nc2ccc3nc(NCc4ccc(N(C)c5ncc(Cl)cn5)cc4)n(C)c3c2)n[nH]1 [Compound 471]
10 to 20 µM	< 1 µM	< 10 µM	Fc1ccc(CNc2nc3ccc(N4CCC(Oc5ccc(OC(F)(F)F)cc5)C4)cc3[nH]2)cc1 (stereo not drawn) [Compound 77]
< 10 µM	< 1 µM	> 20 µM	CC(C)(C)Nc1nc2cc(N)ccc2n1CCOc1ccc(OC(F)(F)F)cc1 [Compound 66]
< 10 µM	< 1 µM	< 10 µM	CC(Nc1nc2cc(N)ccc2[nH]1)c1ccc(Oc2ccc(Cl)cc2)cc1 (stereo not drawn) [Compound 110]
< 10 µM	< 1 µM	< 10 µM	Cn1c(NCc2ccc(Oc3ccc(Cl)cn3)cc2)nc2ccc(Nc3cc[nH]n3)cc21 [Compound 449]
< 10 µM	< 1 µM	< 10 µM	Cn1c(NCc2ccc(Oc3ccc(C#N)cn3)cc2)nc2ccc(N)cc21 [Compound 350]
< 10 µM	< 1 µM	< 10 µM	Cc1cc(Nc2cc(F)c3nc(NCc4ccc(Oc5ncc(Cl)cn5)cc4)n(C)c3c2)n[nH]1 [Compound 499]
< 10 µM	< 1 µM	< 10 µM	CCn1c(NCc2ccc(Oc3ncc(C(F)(F)F)cn3)cc2F)nc2ccc(NC3COC3)cc21 [Compound 542]
< 10 µM	< 1 µM	< 10 µM	CCn1c(NCc2ccc(Oc3ncc(C(F)(F)F)cn3)cc2)nc2ccc(Nc3ccn(C)n3)cc21 [Compound 525]
< 10 µM	1 to 10 µM	< 10 µM	Cn1c(NCc2ccc(Oc3ncc(Cl)cn3)cc2)nc2ccc(Nc3ccccn3)cc21 [Compound 447]
